One may read the MIC as the smallest concentration in the dilution series that meets the test's criterion for growth inhibition. The term IC50 denotes the point on the concentration scale where inhibition reaches its midpoint. What is called Tmax is the time from dosing to the highest level.

Active and inactive are the calls of the source.

Series [1] deals with Escherichia coli. Nature of the series: Potentiation of meropenem-induced antibacterial activity against Escherichia coli C1541 expressing VIM-2 assessed as meropenem MIC at 10 ug/ml incubated for 18 to 20 hrs by CLSI based broth microtiter dilution method (reference value: 16 ug/ml). Type of series: functional. The following applies: dose 10 µg/ml, time 18-20 hrs.
Series [2] can be described thus: Toxicity in ICR mouse assessed as effect on histological architecture of lungs at 500 to 2000 mg/kg, ip administered for 14 days by hematoxylin and eosin staining based histopathological assay. Type of series: organism-based. The note with it: in vivo, 336 h, dose 500-2000 mg/kg, time 14 day.
Series [3] deals with Escherichia coli. The series can be described thus: Potentiation of meropenem-induced antibacterial activity against Escherichia coli C1542 expressing VIM-2 assessed as fold reduction in meropenem MIC at 10 ug/ml incubated for 18 to 20 hrs by CLSI based broth microtiter dilution method. It counts as functional. The following applies: dose 10 µg/ml; time 18-20 hrs.
The nature of series [4]: Inhibition of bacterial IMP-1 (1 to 246 residues) expressed in Escherichia coli Transetta (DE3) using FC-5 as substrate preincubated with enzyme for 10 mins followed by substrate addition by fluorescence based analysis. Further details: species or system Bacteria.
Series [5] is described as follows: Toxicity in ICR mouse assessed as mortality at 500 to 2000 mg/kg, ip administered for 14 days. Type of series: organism-based. The following applies: in vivo, 336 h, dose 500-2000 mg/kg, time 14 day.
Series [6] has as its system Pseudomonas aeruginosa. Nature of the series: Potentiation of meropenem-induced antibacterial activity against Pseudomonas aeruginosa W35 expressing VIM-2 assessed as meropenem MIC at 100 ug/ml incubated for 18 to 20 hrs in presence of meropenem by CLSI based broth microtiter dilution method (reference value: 64 ug/ml). The note with it: dose 100 µg/ml, time 18-20 hrs. It counts as functional.

Series [7] is described as follows: Tmax in Sprague-Dawley rat at 100 mg/kg, ip by UPLC analysis. Type of series: ADME, organism-based. The following applies: in vivo.
Series [8] is described as follows: Inhibition of bacterial VIM-2 (27 to 266 residues) expressed in Escherichia coli Transetta (DE3) using FC-5 as substrate preincubated with enzyme for 10 mins followed by substrate addition in presence of 100 uM Zn2+ by fluorescence based analysis. Further details: species or system Bacteria.
Series [9] is described as follows: Inhibition of bacterial recombinant full length N-terminal-TEV-His6-tagged VIM-5 expressed in Escherichia coli Transetta using FC-5 as substrate preincubated with enzyme for 10 mins followed by substrate addition by fluorescence based analysis. Further details: species or system Bacteria.
Series [10] relates to Pseudomonas aeruginosa. The series can be described thus: Induction of morphological changes in Pseudomonas aeruginosa W35 expressing VIM-2 at 10 ug/ml incubated for 1 hr by transmission electron microscopy. It counts as functional, organism-based. The following applies: dose 10.0 µg/ml.
Series [11] concerns Escherichia coli. Nature of the series: Potentiation of meropenem-induced antibacterial activity against Escherichia coli C1541 expressing VIM-2 assessed as fold reduction in meropenem MIC at 10 ug/ml incubated for 18 to 20 hrs by CLSI based broth microtiter dilution method. Type of series: functional. The note with it: dose 10 µg/ml; time 18-20 hrs.
Series [12] relates to Escherichia coli. Nature of the series: Bactericidal activity against Escherichia coli C1580 expressing VIM-2 assessed as induction of bacterial ultrastructural changes by measuring cellular debris at 20 ug/ml incubated for 1 hr in presence of meropenem by transmission electron microscopy. It counts as functional, organism-based. The note with it: dose 20.0 µg/ml.
The nature of series [13]: Toxicity in ICR mouse assessed as effect on histological architecture of spleen at 500 to 2000 mg/kg, ip administered for 14 days by hematoxylin and eosin staining based histopathological assay. It counts as organism-based. The following applies: in vivo, 336 h, dose 500-2000 mg/kg, time 14 day.

Turning to `O=C(O)c1nccn1Cc1ccncc1`, the MIC was less than 0.25 µg/mL with Escherichia coli [1] and 4 µg/mL with Pseudomonas aeruginosa [6]. The Activity result in series [2], in series [5] and in series [13] was “Non-Toxic” in each case. In addition, the “fold change (FC)” value in the series with Escherichia coli [3] and with Escherichia coli [11] was more than 64 each time. In addition, the half-maximal inhibitory concentration (IC50) in series [4] was more than 300 µM; in series [8], 1.75 µM; in series [9], 5.78 µM. Also, the time of peak concentration (Tmax) in series [7] was 9 min. In addition, the result with Pseudomonas aeruginosa [10] and in the series with Escherichia coli [12] was Active.

These data come from ChEMBL document CHEMBL5154646, “Structure-guided optimization of 1H-imidazole-2-carboxylic acid derivatives affording potent VIM-Type metallo-β-lactamase inhibitors” (Eur J Med Chem, 2022).
